In ChEMBL document CHEMBL1201861, “Genomics of Drug Sensitity in Cancer screening data, Wellcome Trust Sanger Institute”:

Tests used:
MKN-7 = test: cells; type: functional, cell-based, Homo sapiens; conditions: Homo sapiens, MKN-7;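 further: growth inhibition of MKN-7 cells, read out with a cell viability assay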
Description: SANGER: Inhibition of human MKN7 cell growth in a cell viability assay.

BC-3 = test: cells; type: functional, cell-based, Homo sapiens; conditions: Homo sapiens, BC-3;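 further: cell viability assay measuring growth inhibition of human BC-3 cells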
Description: SANGER: Inhibition of human BC-3 cell growth in a cell viability assay.

NCI-H520 = test: cells; type: functional, cell-based, Homo sapiens; conditions: Homo sapiens, NCI-H520;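 further: growth inhibition of NCI-H520 cells, measured by a cell viability assay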
Description: SANGER: Inhibition of human NCI-H520 cell growth in a cell viability assay.

PC-3 = test: cells; type: functional, cell-based, Homo sapiens; conditions: Homo sapiens, PC-3;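 further: cell viability assay measuring growth inhibition of PC-3 cells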
Description: SANGER: Inhibition of human PC-3 cell growth in a cell viability assay.

SW837 = test: cells; type: functional, cell-based, Homo sapiens; conditions: Homo sapiens, SW837;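 further: growth inhibition of SW837 cells, determined with a cell viability assay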
Description: SANGER: Inhibition of human SW837 cell growth in a cell viability assay.

DoTc2-4510 = test: cells; type: functional, cell-based, Homo sapiens; conditions: Homo sapiens, DoTc2-4510
GAMG = test: cells; type: functional, cell-based, Homo sapiens; conditions: Homo sapiens, GAMG;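 further: cell growth inhibition measured by a viability assay in the GAMG human cell line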
Description: SANGER: Inhibition of human GAMG cell growth in a cell viability assay.

ChaGo-K-1 = test: cells; type: functional, cell-based, Homo sapiens; conditions: Homo sapiens, ChaGo-K-1;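 further: growth inhibition of ChaGo-K-1 cells, read out with a cell viability assay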
Description: SANGER: Inhibition of human ChaGo-K-1 cell growth in a cell viability assay.

SUP-T1 = test: cells; type: functional, cell-based, Homo sapiens; conditions: Homo sapiens, SUP-T1;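 further: growth inhibition of human SUP-T1 cells, read out as cell viability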
Description: SANGER: Inhibition of human SUP-T1 cell growth in a cell viability assay.

Capan-2 = test: cells; type: functional, cell-based, Homo sapiens; conditions: Homo sapiens, Capan-2;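 further: Capan-2 cell growth inhibition, read out with a viability assay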
Description: SANGER: Inhibition of human Capan-2 cell growth in a cell viability assay.

MDA-MB-175-VII = test: cells; type: functional, cell-based, Homo sapiens; conditions: Homo sapiens, MDA-MB-175-VII
KYSE-410 = test: cells; type: functional, cell-based, Homo sapiens; conditions: Homo sapiens, KYSE-410;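 further: growth inhibition of KYSE-410 cells, measured through a cell viability readout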
Description: SANGER: Inhibition of human KYSE-410 cell growth in a cell viability assay.

SF-295 = test: cells; type: functional, cell-based, Homo sapiens; conditions: Homo sapiens, SF-295;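 further: growth inhibition of SF-295 cells, read out with a cell viability assay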
Description: SANGER: Inhibition of human SF295 cell growth in a cell viability assay.

AN3-CA = test: cells; type: functional, cell-based, Homo sapiens; conditions: Homo sapiens, AN3-CA;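 further: growth inhibition of human AN3-CA cells measured by a cell viability assay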
Description: SANGER: Inhibition of human AN3-CA cell growth in a cell viability assay.

G-401 = test: cells; type: functional, cell-based, Homo sapiens; conditions: Homo sapiens, G-401
Description: SANGER: Inhibition of human G-401 cell growth in a cell viability assay.

MeWo = test: cells; type: functional, cell-based, Homo sapiens; conditions: Homo sapiens, MeWo;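 further: growth inhibition of MeWo cells, determined by a cell viability readout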
Description: SANGER: Inhibition of human Mewo cell growth in a cell viability assay.

ME-180 = test: cells; type: functional, cell-based, Homo sapiens; conditions: Homo sapiens, ME-180;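 further: cell viability assay measuring growth inhibition of ME-180 cells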
Description: SANGER: Inhibition of human ME-180 cell growth in a cell viability assay.

MKN-45 = test: cells; type: functional, cell-based, Homo sapiens; conditions: Homo sapiens, MKN-45;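 further: growth inhibition of human MKN-45 cells, measured with a cell viability assay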
Description: SANGER: Inhibition of human MKN45 cell growth in a cell viability assay.

Raji = test: cells; type: functional, cell-based, Homo sapiens; conditions: Homo sapiens, Raji;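 further: cell viability assay measuring inhibition of Raji cell growth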
Description: SANGER: Inhibition of human Raji cell growth in a cell viability assay.

LOUCY = test: cells; type: functional, cell-based, Homo sapiens; conditions: Homo sapiens, LOUCY;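 further: growth inhibition of human LOUCY cells, read out with a cell viability assay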
Description: SANGER: Inhibition of human LOUCY cell growth in a cell viability assay.

KYSE-140 = test: cells; type: functional, cell-based, Homo sapiens; conditions: Homo sapiens, KYSE-140;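 further: cell viability assay measuring growth inhibition in human KYSE-140 cells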
Description: SANGER: Inhibition of human KYSE-140 cell growth in a cell viability assay.

G-361 = test: cells; type: functional, cell-based, Homo sapiens; conditions: Homo sapiens, G-361
HCC1954 = test: cells; type: functional, cell-based, Homo sapiens; conditions: Homo sapiens, HCC1954;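 further: growth inhibition of human HCC1954 cells, read out with a cell viability assay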
Description: SANGER: Inhibition of human HCC1954 cell growth in a cell viability assay.

MDA-MB-361 = test: cells; type: functional, cell-based, Homo sapiens; conditions: Homo sapiens, MDA-MB-361
NCI-H2342 = test: cells; type: functional, cell-based, Homo sapiens; conditions: Homo sapiens, NCI-H2342;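 further: growth inhibition of the cancer cell line, determined with a cell viability assay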
Description: SANGER: Inhibition of human NCI-H2342 cell growth in a cell viability assay.

NCI-H2171 = test: cells; type: functional, cell-based, Homo sapiens; conditions: Homo sapiens, NCI-H2171;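 further: growth inhibition of human NCI-H2171 cells, read out by a cell viability assay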
Description: SANGER: Inhibition of human NCI-H2171 cell growth in a cell viability assay.

HCC1937 = test: cells; type: functional, cell-based, Homo sapiens; conditions: Homo sapiens, HCC1937;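 further: growth inhibition measured with a cell viability read-out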
Description: SANGER: Inhibition of human HCC1937 cell growth in a cell viability assay.

NCI-H748 = test: cells; type: functional, cell-based, Homo sapiens; conditions: Homo sapiens, NCI-H748;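 further: growth inhibition of NCI-H748 cells, measured by a cell viability assay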
Description: SANGER: Inhibition of human NCI-H748 cell growth in a cell viability assay.

BL-41 = test: cells; type: functional, cell-based, Homo sapiens; conditions: Homo sapiens, BL-41;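 further: growth inhibition of human BL-41 cells, read out with a cell viability assay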
Description: SANGER: Inhibition of human BL-41 cell growth in a cell viability assay.

WM-115 = test: cells; type: functional, cell-based, Homo sapiens; conditions: Homo sapiens, WM-115
Description: SANGER: Inhibition of human WM-115 cell growth in a cell viability assay.

A204 = test: cells; type: functional, cell-based, Homo sapiens; conditions: Homo sapiens, A204;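 further: growth inhibition of human A204 cells, read out with a cell viability assay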
Description: SANGER: Inhibition of human A204 cell growth in a cell viability assay.

SW13 = test: cells; type: functional, cell-based, Homo sapiens; conditions: Homo sapiens, SW13;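 further: IC50 is inhibition of SW13 cell growth, read out with a cell viability assay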
Description: SANGER: Inhibition of human SW13 cell growth in a cell viability assay.

COLO-679 = test: cells; type: functional, cell-based, Homo sapiens; conditions: Homo sapiens, COLO-679
Description: SANGER: Inhibition of human COLO-679 cell growth in a cell viability assay.

NCI-H2196 = test: cells; type: functional, cell-based, Homo sapiens; conditions: Homo sapiens, NCI-H2196;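 further: cell viability assay used as the readout of growth inhibition in NCI-H2196 cells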
Description: SANGER: Inhibition of human NCI-H2196 cell growth in a cell viability assay.

RL = test: cells; type: functional, cell-based, Homo sapiens; conditions: Homo sapiens, RL
Description: SANGER: Inhibition of human RL cell growth in a cell viability assay.

KU-19-19 = test: cells; type: functional, cell-based, Homo sapiens; conditions: Homo sapiens, KU-19-19
Description: SANGER: Inhibition of human KU-19-19 cell growth in a cell viability assay.

MONO-MAC-6 = test: cells; type: functional, cell-based, Homo sapiens; conditions: Homo sapiens, MONO-MAC-6;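 further: cell viability assay measuring growth inhibition of human MONO-MAC-6 cells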
Description: SANGER: Inhibition of human MONO-MAC-6 cell growth in a cell viability assay.

NUGC-3 = test: cells; type: functional, cell-based, Homo sapiens; conditions: Homo sapiens, NUGC-3;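 further: growth inhibition of human NUGC-3 cells, read out with a cell viability assay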
Description: SANGER: Inhibition of human NUGC-3 cell growth in a cell viability assay.

ST486 = test: SANGER: Inhibition of human ST486 cell growth in a cell viability assay.; type: functional, cell-based; conditions: Homo sapiens, ST486
BHY = test: cells; type: functional, cell-based, Homo sapiens; conditions: Homo sapiens, BHY;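 further: cell growth inhibition read out by a viability assay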
Description: SANGER: Inhibition of human BHY cell growth in a cell viability assay.

KP-4 = test: cells; type: functional, cell-based, Homo sapiens; conditions: Homo sapiens, KP-4;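 further: human KP-4 cells, with growth inhibition read out through a cell viability assay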
Description: SANGER: Inhibition of human KP-4 cell growth in a cell viability assay.

OPM-2 = test: cells; type: functional, cell-based, Homo sapiens; conditions: Homo sapiens, OPM-2;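 further: growth of OPM-2 cells measured with a viability assay, IC50 for suppression of proliferation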
Description: SANGER: Inhibition of human OPM-2 cell growth in a cell viability assay.

786-0 = test: cells; type: functional, cell-based, Homo sapiens; conditions: Homo sapiens
Description: SANGER: Inhibition of human 786-0 cell growth in a cell viability assay.

JEG-3 = test: cells; type: functional, cell-based, Homo sapiens; conditions: Homo sapiens, JEG-3;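 further: growth inhibition of human JEG-3 cells, read out with a cell viability assay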
Description: SANGER: Inhibition of human JEG-3 cell growth in a cell viability assay.

NCI-H1882 = test: cells; type: functional, cell-based, Homo sapiens; conditions: Homo sapiens, NCI-H1882;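 further: growth inhibition of the cell line, determined with a viability assay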
Description: SANGER: Inhibition of human NCI-H1882 cell growth in a cell viability assay.

T84 = test: cells; type: functional, cell-based, Homo sapiens; conditions: Homo sapiens, T84;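 further: growth inhibition measured with a cell viability readout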
Description: SANGER: Inhibition of human T84 cell growth in a cell viability assay.

COc1cccc2c1C(=O)c1c(O)c3c(c(O)c1C2=O)C[C@@](O)(C(=O)CO)C[C@@H]3O[C@H]1C[C@H](N)[C@H](O)[C@H](C)O1 [DOXORUBICIN]
IC50 (MKN-7): 690 nM | IC50 (BC-3): 166 nM | IC50 (NCI-H520): 267 nM | IC50 (PC-3): 957 nM | IC50 (SW837): 118 nM | IC50 (DoTc2-4510): 36.2 nM | IC50 (GAMG): 60 nM | IC50 (ChaGo-K-1): 108 nM | IC50 (SUP-T1): 79.7 nM | IC50 (Capan-2): 898 nM | IC50 (MDA-MB-175-VII): 972 nM | IC50 (KYSE-410): 103 nM | IC50 (SF-295): 49.1 nM | IC50 (AN3-CA): 72.3 nM | IC50 (G-401): 30.2 nM | IC50 (MeWo): > 1020 nM | IC50 (ME-180): 186 nM | IC50 (MKN-45): 81.5 nM | IC50 (Raji): 335 nM | IC50 (LOUCY): 21.3 nM | IC50 (KYSE-140): 50.4 nM | IC50 (G-361): 27.9 nM | IC50 (HCC1954): 541 nM | IC50 (MDA-MB-361): 293 nM | IC50 (NCI-H2342): 22.9 nM | IC50 (NCI-H2171): 441 nM | IC50 (HCC1937): 116 nM | IC50 (NCI-H748): 147 nM | IC50 (BL-41): 122 nM | IC50 (WM-115): > 1020 nM | IC50 (A204): 12.9 nM | IC50 (SW13): 115 nM | IC50 (COLO-679): 16 nM | IC50 (NCI-H2196): 229 nM | IC50 (RL): > 1020 nM | IC50 (KU-19-19): > 1020 nM | IC50 (MONO-MAC-6): 154 nM | IC50 (NUGC-3): 45.2 nM | IC50 (ST486): 15.5 nM | IC50 (BHY): 28.9 nM | IC50 (KP-4): 40.8 nM | IC50 (OPM-2): 502 nM | IC50 (786-0): 8.47 nM | IC50 (JEG-3): 95.1 nM | IC50 (NCI-H1882): 215 nM | IC50 (T84): 57.1 nM

O=C(O)c1ccc(-c2c[nH]c3ncc(-c4ccccc4)cc23)cc1C1CCCC1 [GSK-650394]
IC50 (MKN-7): > 16000 nM | IC50 (BC-3): 1870 nM | IC50 (NCI-H520): > 16000 nM | IC50 (PC-3): > 16000 nM | IC50 (SW837): > 16000 nM | IC50 (DoTc2-4510): > 16000 nM | IC50 (GAMG): 3900 nM | IC50 (ChaGo-K-1): > 16000 nM | IC50 (SUP-T1): > 16000 nM | IC50 (Capan-2): > 16000 nM | IC50 (MDA-MB-175-VII): > 16000 nM | IC50 (KYSE-410): > 16000 nM | IC50 (SF-295): 7600 nM | IC50 (AN3-CA): 7660 nM | IC50 (G-401): > 16000 nM | IC50 (MeWo): > 16000 nM | IC50 (ME-180): > 16000 nM | IC50 (MKN-45): > 16000 nM | IC50 (Raji): > 16000 nM | IC50 (LOUCY): > 16000 nM | IC50 (KYSE-140): 8090 nM | IC50 (G-361): 3720 nM | IC50 (HCC1954): > 16000 nM | IC50 (MDA-MB-361): > 16000 nM | IC50 (NCI-H2342): 2190 nM | IC50 (NCI-H2171): > 16000 nM | IC50 (HCC1937): > 16000 nM | IC50 (NCI-H748): > 16000 nM | IC50 (BL-41): > 16000 nM | IC50 (WM-115): > 16000 nM | IC50 (A204): > 16000 nM | IC50 (SW13): > 16000 nM | IC50 (COLO-679): 5300 nM | IC50 (NCI-H2196): > 16000 nM | IC50 (RL): > 16000 nM | IC50 (KU-19-19): > 16000 nM | IC50 (MONO-MAC-6): 1180 nM | IC50 (NUGC-3): > 16000 nM | IC50 (ST486): > 16000 nM | IC50 (BHY): 4920 nM | IC50 (KP-4): 5190 nM | IC50 (OPM-2): > 16000 nM | IC50 (786-0): 2950 nM | IC50 (JEG-3): > 16000 nM | IC50 (NCI-H1882): > 16000 nM | IC50 (T84): 2600 nM
